Data taken from PMC6108835, “Target-Based Discovery of an Inhibitor of the Regulatory Phosphatase PPP1R15B” (Cell, 2018).

What was measured:
R15B^340–698 = biological target: T1, R15B^340–698 (Homo sapiens, UniProt Q5SWA1); assay: eIF2α pull down with MBP-tagged R15B; type: biochemical; conditions: Raphin1 200 μM, P-eIF2α 1 μM
T1 construct: made in house; host or cells: E. coli BL21-Gold (DE3) pLysS
Procedure: Recombinant eIF2α was produced as described in [Ito et al. (2004)] and pull down experiments were carried out as previously described ([Carrara et al., 2017]). Amylose beads (New England BioLabs) were pre-equilibrated with interaction buffer (50 mM Tris pH 7.4, 200 mM NaCl, 0.05% Tween20). 20 μL amylose beads were incubated with purified MBP-tagged R15s (200 nM), P-eIF2α (1 μM) as appropriate, plus 200 μM Raphin1, or DMSO vehicle in a total volume of 200 μL. Input samples (5%) was removed at this step, and added to 4% SDS-Laemmli sample buffer. Beads were incubated for 10 min at 4°C with 20 rpm gentle rotation. The beads were washed 5 × 1 mL with interaction buffer, transferred to a fresh tube and finally resuspended with 50 μL 4% SDS-Laemmli sample buffer. Eluded beads were boiled and then run on 4%–12% NuPAGE Bis-Tris gels (ThermoFisher Scientific). Anti-MBP HRP (New England BioLabs (#E8038); 1:5,000) (to probe for R15s) and anti-eIF2α (AbCam (#ab26197); 1:1,000) antibodies were used for immunoblotting analyses of samples.

[1] = Body weight gain of wild-type mice under chronic treatment; type: in vivo, mouse; conditions: various doses once a day (2 mg/kg for 10 weeks; 15 days at indicated doses)
Procedure: The acetate salts of Raphin1 or GBZ were dissolved in water and sonicated for 10 min. The solution was aliquoted and kept at −20°C until use. Once thawed a tube was kept at 4°C and used within 24 hr. The compounds were administered by oral gavage.
Raphin1 was administered at 2 mg/kg (unless otherwise specified). Mice received a single dose or were treated chronically – one time per day. Control mice were treated with vehicle (water) only.
Mice were weighted on a dedicated scale (A&D, FX3000iWP). 4 weeks old treatment and test naive C57BL/6J males and females (Figure 6B) and 2 months old treatment and test naive C3H/B6 males (Figure S6A) were used.

wild-type mice = assay: Morris water maze; type: in vivo, mouse; conditions: 2 mg/kg for 2 weeks
Procedure: Morris water maze and the following fear conditioning were performed on C57BL/6J wild-type males aged 2.5 months. Mice were treatment- and test-naive before the treatment started. Treatment with Raphin1 started two weeks before and was continued during the behavioral tests.
The water maze consisted of a white circular tank (1.50 m diameter) filled with opaque water adjusted to 21 ± 1°C. For the hidden platform task, the escape platform (10 cm diameter) was positioned 1 cm below water surface in the center of one of the pool quadrants. The walls surrounding the water maze were hung with posters and flags, which served as visual cues and were visible during all stages of 5 trainings and testing. Movement of the mice within the pool was tracked and analyzed with a computerized tracking system (ViewPoint, France). During training mice were required to locate a submerged hidden platform by using only extra-maze cues. Each mouse received five blocks of training trials over five consecutive days. […] Spatial learning performance was assessed during a probe trial 1 hr after the last session of training, and for which the target platform was removed from the pool. To evaluate the performance during training trials the latency and distance traveled to find the hidden platform were measured. […]

R15B = biological target: T2, R15B (Homo sapiens, UniProt Q5SWA1); assay: R15B levels on immunoblots of HeLa cell lysates; type: cell-based; conditions: HeLa cells, Raphin1 10 μM
T2 construct: endogenous in cells; host or cells: HeLa
T2 sequence (Q5SWA1 1-713): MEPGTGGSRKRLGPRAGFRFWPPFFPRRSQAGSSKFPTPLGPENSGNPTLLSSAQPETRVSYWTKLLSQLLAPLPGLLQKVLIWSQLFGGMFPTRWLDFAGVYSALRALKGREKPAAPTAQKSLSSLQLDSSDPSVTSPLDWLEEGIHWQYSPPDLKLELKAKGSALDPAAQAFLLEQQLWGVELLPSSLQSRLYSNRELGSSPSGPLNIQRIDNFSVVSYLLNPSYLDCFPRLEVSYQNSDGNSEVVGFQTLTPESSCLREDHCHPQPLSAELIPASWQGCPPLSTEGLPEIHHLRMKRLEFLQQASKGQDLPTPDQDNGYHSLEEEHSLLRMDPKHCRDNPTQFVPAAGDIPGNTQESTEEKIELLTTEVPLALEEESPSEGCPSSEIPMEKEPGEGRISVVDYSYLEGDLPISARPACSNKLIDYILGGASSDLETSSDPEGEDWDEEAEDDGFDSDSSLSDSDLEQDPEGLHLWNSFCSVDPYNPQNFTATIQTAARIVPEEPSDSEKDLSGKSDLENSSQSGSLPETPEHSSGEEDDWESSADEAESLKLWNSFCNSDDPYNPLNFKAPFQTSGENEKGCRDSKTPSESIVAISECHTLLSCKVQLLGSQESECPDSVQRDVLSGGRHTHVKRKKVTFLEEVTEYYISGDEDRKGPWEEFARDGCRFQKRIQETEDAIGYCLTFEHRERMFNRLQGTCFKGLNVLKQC
Procedure: HeLa or MEF cells (90,000 cells/mL) were plated in 12-well plates (1 mL/well). The following day cells were treated as indicated; the medium was removed, fresh medium containing compound added and incubated at 37°C for the times indicated. The time course was performed in reverse order to facilitate collecting all samples at the same time. At the end of treatment cells were washed two times with ice-cold PBS and lysed in 150 μL Laemmli Buffer. […] Proteins were transferred to the nitrocellulose membrane using the iBlot 2 system (ThermoFisher Scientific). Membrane was blocked in 5% skimmed milk for 30 min and then probed with primary antibodies followed by incubation with the appropriate horseradish peroxidase-conjugated secondary antibodies (Promega). Proteins were visualized using ECL Prime (GE Healthcare) and imaged in the Chemi-Smart 5000 (Vilber-Lourmat, France) or ChemiDoc Touch (BioRad). Bands were quantified using ImageJ (NIH, USA).

[H]/N=C(\N)NN=Cc1cccc(Cl)c1Cl [Raphin1, (E)-2-(2,3-dichlorobenzylidene)hydrazine-1-carboximidamide]
Recruitment of eIF2α to R15B (R15B^340–698): decreased | Adverse effects on weight gain [1]: no obvious adverse effects | Adverse effects on memory, Morris water maze (wild-type mice): no adverse effects | R15B levels (R15B): significantly decreased
